According to patent US20050019826A1 (priority 2000, published 2005):
Entries after “also recorded” stand apart in the source; their conditions may differ. Ends that are not written are not given here.

Key:
KDR [1] = assay: Displacement of 125I-VEGF165 binding to CHO-KDR transfected cells by V1 derivatives; conditions: for peptide efficiency after change of C-terminal arginine: compared with V1; for Efficiency (% Emax): relative to V1 = 100
Source text: FIG. 11. […] Experimental conditions are indicated in the legend of FIG. 10.
FIG. 12. […] Experimental conditions are indicated in the legend of FIG. 10.
(§1) Experimental conditions are indicated in the legend of FIG. 10.
FIG. 17. […] Experimental conditions are indicated in the legend of FIG. 10.

KDR [2] = assay: Competition assay of 125I-VEGF binding to CHO-KDR cells; design: block of VEGF binding to CHO-KDR cells: dose or concentration left out as unconfirmed; conditions: for inhibitory effect on VEGF binding to KDR: fixed peptide concentration 2.1×10^−4M, heparin 1.8 μg/ml
Procedure: FIG. 1. […] (B) Effect of heparin. […] Data correspond to the mean and standard deviations of triplicate samples.
FIG. 4. […] Data represent the means and standard deviations of triplicate samples.
FIG. 5. […] Data represent the mean and standard deviations of triplicate samples.
(§2) Competition assay of binding to CHO-KDR cells. CHO-KDR cells were seeded in 24-well plates at a density of 5×10^5 cells/well. After 24 h, subconfluent plates were transferred at 4° C., and all subsequent operations were done at 4° C. […] After 3 h, cells were washed five times with binding buffer and solubilized by the addition of 0.5 M NaOH. The amount of radioactivity bound to the cells was counted in a gamma counter (LKB 1261 Multigamma). The receptor affinity and the number of binding sites per cell were determined by Scatchard's analysis (Scatchard, 1986).

[3] = tested on: VEGF-induced corneal angiogenesis; assay: Rabbit corneal pocket assay; assay type: in vivo, New Zealand rabbit; conditions: day 12; for effect on VEGF-induced corneal angiogenic response: implant 2 pmol VEGF + 30 nmol peptide; for neovascularization by peptide compared with vehicle alone: implant 30 nmol peptide, absence of VEGF
Procedure: FIG. 9. V1 inhibits corneal angiogenesis in vivo.
Rabbit corneal pocket assay. […] These implants were inserted in New Zealand rabbit (Elevage du Trottis, Esperce, France) corneal stroma 2 mm away from the limbus (Favard et al, 1991). Neovascularization was assessed on day 12 by direct examination with a slit lamp and scored according to a 4 grade scale (grade 1: less than 1 mm long neovessels, grade 2: 1 mm long neovessels, grade 3: 1 to 2 mm long neovessels, grade 4: neovessels extending to the implant). Means and standard deviations were determined on 8 implant groups for each condition.

[4] = tested on: Human Umbilical Artery Endothelial Cells (HUAE); assay: HUAE cell proliferation induced by VEGF; assay type: cell-based; conditions: 2 ng/ml VEGF, peptide daily, 5 days
Procedure: (§3) FIG. 7. […] Cells were counted after 5 days. Data are means of proliferation inhibition percentages for triplicate samples.
(§4) Cell proliferation assay. To test the anti-VEGF antibody neutralizing effect, CPAE cells were plated into 96-well tissue culture plates at a density of 500 cells/well. After 24 h, various concentrations of anti-VEGF antibody were added. The cells were cultured for an additional day and cell proliferation was measured using the Cell proliferation ELISA kit from Boerhinger (Indianapolis, Ind.). Cells were incubated with BrdU for 4 h at 37° C., and the incorporation of BrdU in newly synthetized DNA was quantified by immunoassay as described by the manufacturer. To investigate the peptide effect, after 24 h of CPAE cell growth, 2.1×10^−4M synthetic peptides were added daily to the culture medium. Cell proliferation was assessed after 24 h, 48 h or 72 h as described above. […] Cells were trypsinized and counted after 5 days using a Coulter counter.

[5] = tested on: Calf pulmonary artery endothelial cells (CPAE); assay: CPAE cell proliferation assay (BrdU incorporation); assay type: cell-based; conditions: 2.1×10^−4M synthetic peptide, 24 h
Procedure: FIG. 3. The anti-VEGF antibody blocks CPAE cell growth. CPAE cell growth was measured in cultures supplemented with various concentrations of anti-VEGF antibody and compared with untreated cultures. Data represent means and standard deviations of proliferation inhibition for triplicate samples and are representative of two independent experiments.
FIG. 6. V1 inhibits CPAE cell proliferation. CPAE cell growth was measured after 24h of incubation in presence of synthetic peptides selected by antibody binding (A) or by KDR binding (B) and compared with untreated cultures. Data represent means and standard deviations of proliferation inhibition for triplicates and are representative of three independent experiments.
as §4

KDR [6] = assay: ELISA of the phage-displayed peptide binding to CHO-KDR cells; conditions: clones selected by anti-VEGF antibody binding, 10^12 pfu/ml
Procedure: FIG. 2. […] Clones selected by KDR binding (10^13 pfu/ml) (A) or by anti-VEGF antibody binding (10^12 pfu/ml) (B) were compared with M13 phage particles (control). Results are representative of three independent assays.
Exponentially growing CHO-KDR cells were seeded in 96-well microtiter plates at 7×10^4 cells/well and left overnight at 37° C. Cells were fixed with paraformaldehyde (4% in PBS) for 15 min at room temperature and washed with PBS. Wells were then filled with PBS-Glycine 0.2%, kept for 15 min at room temperature and then washed with PBS. Phage particles (10^12 or 10^13/ml) were added to each well and incubated 2 h at room temperature. Wells were washed with PBS and the amount of bound phage was detected with peroxidase-conjugated anti-M13 phage serum (Pharmacia Biotech, Uppsala, Sweden).

VEGF-R2 on HUV-EC Cells = assay: 125I-VEGF165 binding to HUV-EC cells (Scatchard); design: species or system human; conditions: V1 40 μg/ml
Source text: as §1
(see FIGS. 16A, B and C).

[7] = tested on: 125I-VEGF-receptor complexes (VEGF-R2, NP1) on HUV-EC cells; assay: Cross linking of 125I VEGF165 to HUV-EC cells; assay type: binding, human; conditions: V1 2.4×10^−4M and 4.8×10^−4M, 125I VEGF165 160 pM
Source text: FIG. 19. […] 1: Total binding. […] 3: V1, (2.4×10^−4M). 4: V1, (4.8×10^−4M).

KDR [8] = molecular target: T1, KDR (Homo sapiens, UniProt P35968); assay: HUAE cell proliferation induced by KDR anti-idiotypic antibodies (AIA); assay type: cell-based; conditions: 100 ng/ml KDR anti-idiotypic antibodies, peptide daily, 5 days
T1 construct: endogenous in cells; host or cells: HUAE cells
Procedure: as §3, §4

[9] = tested on: Human umbilical vein endothelial cell (HUVEC); assay: VEGF165 induced HUVEC proliferation; assay type: cell-based; conditions: V1 400 μg/ml, various VEGF165 concentrations, 96 hours
Procedure: FIG. 13. Effect of V1 (400 μg/ml) VEGF165 induced HUVEC proliferation. Various concentrations of VEGF165 were added during 96 hours.
The inhibitory effect of V1 on Human umbilical vein endothelial cell (HUVEC) in primary culture.

NIH 3T3 fibroblasts = assay: NIH3T3 fibroblast proliferation; assay type: cell-based; conditions: 24 h
Procedure: FIG. 8. V1 acts specifically on endothelial cells. CPAE and NIH 3T3 fibroblasts were cultured with or without V1 peptide, and the changes in cell proliferation were measured after 24 h. Data represent the means and standard deviations of proliferation inhibition percentages for triplicate samples, and similar results were obtained in two independent experiments.
as §4

[10] = molecular target: T2, recombinant KDR expressed at the membrane surface of CHO-KDR cells (UniProt P35968 20-1356, limits assumed); assay: displacement of 125I-VEGF165 from CHO-KDR transfected cells
T2 construct: whole, on cells; also called VEGFR-2; VEGF-R2
Procedure: as §2, with “5×10⁵” for “5×10^5”

[11] = heparin various amounts, PlGF 50 ng/ml

T2 sequence (P35968 20-1356 limits assumed): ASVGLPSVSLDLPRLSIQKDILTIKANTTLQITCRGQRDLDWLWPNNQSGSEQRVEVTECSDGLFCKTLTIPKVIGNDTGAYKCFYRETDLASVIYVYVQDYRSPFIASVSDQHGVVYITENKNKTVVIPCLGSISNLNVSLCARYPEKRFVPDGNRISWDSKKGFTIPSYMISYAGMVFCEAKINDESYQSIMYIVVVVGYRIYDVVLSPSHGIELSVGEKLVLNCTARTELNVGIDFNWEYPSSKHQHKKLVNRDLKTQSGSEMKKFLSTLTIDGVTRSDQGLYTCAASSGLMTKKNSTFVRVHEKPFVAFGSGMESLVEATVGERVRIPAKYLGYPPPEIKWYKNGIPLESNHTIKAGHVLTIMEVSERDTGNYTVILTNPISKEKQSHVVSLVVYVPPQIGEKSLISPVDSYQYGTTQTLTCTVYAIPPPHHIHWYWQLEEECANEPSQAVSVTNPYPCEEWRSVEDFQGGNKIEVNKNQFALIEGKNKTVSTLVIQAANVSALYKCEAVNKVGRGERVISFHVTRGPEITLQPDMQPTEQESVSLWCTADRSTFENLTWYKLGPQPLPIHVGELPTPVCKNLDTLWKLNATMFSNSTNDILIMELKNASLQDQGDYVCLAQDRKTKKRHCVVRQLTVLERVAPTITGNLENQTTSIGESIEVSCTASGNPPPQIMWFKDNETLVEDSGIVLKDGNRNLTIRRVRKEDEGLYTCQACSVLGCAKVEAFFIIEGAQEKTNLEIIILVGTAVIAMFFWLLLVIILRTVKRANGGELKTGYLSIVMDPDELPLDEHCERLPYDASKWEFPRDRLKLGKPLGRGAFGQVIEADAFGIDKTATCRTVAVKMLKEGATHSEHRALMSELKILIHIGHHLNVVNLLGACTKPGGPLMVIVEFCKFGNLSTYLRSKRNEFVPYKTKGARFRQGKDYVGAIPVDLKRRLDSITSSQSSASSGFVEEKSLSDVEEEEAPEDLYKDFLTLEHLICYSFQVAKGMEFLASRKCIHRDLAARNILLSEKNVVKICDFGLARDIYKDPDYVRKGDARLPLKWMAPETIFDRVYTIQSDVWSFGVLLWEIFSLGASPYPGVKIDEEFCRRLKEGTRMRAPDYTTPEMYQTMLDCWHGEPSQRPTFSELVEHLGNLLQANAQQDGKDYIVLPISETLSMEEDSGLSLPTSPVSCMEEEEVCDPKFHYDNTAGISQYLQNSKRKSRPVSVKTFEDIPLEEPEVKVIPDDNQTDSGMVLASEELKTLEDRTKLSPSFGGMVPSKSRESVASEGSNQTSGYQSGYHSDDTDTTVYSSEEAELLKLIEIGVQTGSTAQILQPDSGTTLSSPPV
T1 sequence (P35968 20-1356): as the sequence (P35968 20-1356 limits assumed) above

ATALPP [A10]
peptide efficiency after change of C-terminal arginine (KDR [1]): significantly reduced the peptide efficiency

ATWAPPR [A4]
Efficiency (% Emax) (KDR [1]): 31 % Emax

ILDNYKL [V5]
effect on VEGF binding to CHO-KDR cells (KDR [2]; various concentrations, same conditions as V1): did not modify VEGF binding
effect on VEGF-induced corneal angiogenic response [3]: not modified
neovascularization by peptide compared with vehicle alone [3]: did not improve the generation of new blood vessels
effect on VEGF-induced proliferation of human endothelial cells [4]: no inhibitory effect

heparin [reference compound]
optimal heparin concentration for increasing VEGF binding (KDR [2]): 1.8 µg/mL
effect on VEGF binding to CHO-KDR cells (KDR [2]; [11]): increase the binding of VEGF

ATALPPR [A3]
Efficiency (% Emax) (KDR [1]): 70 % Emax

LPPNPTK [V6]
inhibitory effect on VEGF binding to KDR (KDR [2]): did not affect the binding of VEGF to KDR; also recorded: no effect on VEGF binding to KDR
reduction of CPAE cell proliferation [5]: significantly inhibited the proliferation of endothelial cells
ELISA signal of phage clone binding to CHO-KDR cells (KDR [6]): best reactivities

ATWLPPA [A7]
activity of alanine-substituted analogues in displacement of 125I-VEGF165 (KDR [1]; AlaScan): totally devoid of activity
Efficiency (% Emax) (KDR [1]): 0 % Emax

AAWLPPR [A2]
Efficiency (% Emax) (KDR [1]): 61 % Emax

ATWLPPR [V1, ATWLPPR]
block of VEGF binding to CHO-KDR cells (KDR [2]): nearly block VEGF binding
inhibitory effect on VEGF binding to KDR (KDR [2]): showed an inhibitory effect
IC50 (KDR [2]; read-out: IC50 for inhibition of VEGF binding to CHO-KDR cells, estimated): 80 µM
effect on VEGF binding to HUV-EC receptors (VEGF-R2 on HUV-EC Cells): inhibited only the VEGF binding to high affinity receptors
effect on VEGF-induced corneal angiogenic response [3]: totally abolished
neovascularization by peptide compared with vehicle alone [3]: did not improve the generation of new blood vessels
labeling of 125I-VEGF-receptor complexes (240-260 kDa and 160-170 kDa) [7]: decreased
effect on binding and affinity of 125I VEGF165 to VR2 on transfected CHO cells (KDR [1]; 50 μg/ml V1, Scatchard): inhibited the binding; also recorded: affinity is lowered
IC50 (KDR [1]; 125I-VEGF 7 pM, heparin 1 μg/ml, 3 hours +4° C., read-out: CI50 (the source's name)): 18.8 µM
effect on heparin agonistic effect on VEGF165 binding (KDR [1]; V1 50 μg/ml): inhibited this heparin agonistic effect
Efficiency (% Emax) (KDR [1]): 100 % Emax
reduction of CPAE cell proliferation [5]: 60%
effect on AIA-dependent cell proliferation (KDR [8]): could suppress the AIA-dependent cell proliferation
effect on VEGF-induced proliferation of human endothelial cells [4]: suppressed the mitogenic activity of VEGF in a dose dependent manner
ELISA signal of phage clone binding to CHO-KDR cells (KDR [6]): best reactivities
effect on VEGF-induced HUVEC proliferation [9]: inhibited by V1 in a non competitive manner
effect on NIH 3T3 fibroblast proliferation (NIH 3T3 fibroblasts): did not modify the proliferation

ATWLAPR [A5]
Efficiency (% Emax) (KDR [1]): 65 % Emax

AAWLPPK [A9, V1 analogue, C-terminal arginine substituted by lysine]
peptide efficiency after change of C-terminal arginine (KDR [1]): also reduced the peptide efficiency

ATWLPAR [A6]
Efficiency (% Emax) (KDR [1]): 84 % Emax

SLPAHAR [K4]
inhibitory effect on VEGF binding to KDR (KDR [2]): could partially inhibit VEGF binding to KDR
reduction of CPAE cell proliferation [5]: minor effect on endothelial growth

ATWLPPA (AlaScan analogue of ATWLPPR) [V1 analogue A7 (Ala7-substituted analogue)]
Efficiency (% Emax) [10]: 0 % Emax

B1: PlGF: placenta growth factor (R & D Systems) (protein)
chain: AVPPQQWALSAGNGSSEVEVVPFQEVWGRSYCRALERLVDVVSEYPSEVEHMFSPSCVSLLRCTGCCGDENLHCVPVETANVTMQLLKIRSGDRPSYVELTFSQHVRCECRPLREKMKPERCGDAVPRR
effect on VEGF binding to CHO-KDR cells (KDR [2]; [11]): not modifying VEGF binding
